Values joined by “and” are separate entries in the source; they are usually repeats but may differ in a detail not shown here. Equal entries are not always repeated.
What was measured:
[1] = target: T1, human TRPV1 (Homo sapiens, UniProt Q8NER1); assay: Calcium 5 dye [Ca]i assay in HEK-293 Flp-In T-REx cells expressing TRPV1 (agonist response); assay type: cell-based; settings: for Change in Ca5 fluorescence, individual experiments (CRC raw data): TRPV1 cells, listed as GLA
T1 construct: Life Technologies (cells); host or cells: Flp-In T-REx HEK-293
Outline: (§1)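 Tetracycline-induced (1 µg ml^−1, 4 h) HEK-293 T-REx cells loaded with Calcium 5 dye plus 1.25 mM probenecid for 1 h; agonist added after 1 min baseline (0.1% DMSO final), fluorescence (485/525 nm) read every 2 s for 5 min at 37 °C. Response as % change from baseline, solvent-subtracted; EC50/Emax from three-parameter logistic fit, given as pEC50.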

[2] = target: T2, human TRPA1 (Homo sapiens, UniProt O75762); assay: Calcium 5 dye [Ca]i assay in HEK-293 Flp-In T-REx cells expressing TRPA1 (agonist response); assay type: cell-based; settings: for [Ca]i response (change in fluorescence), individual replicates: sheet Figure 4, listed as GLA
T2 construct: Life Technologies (cells); host or cells: Flp-In T-REx HEK-293
Outline: as §1

[3] = tested on: HEK-293 EV cells; assay: Calcium 5 dye [Ca]i assay in HEK-293 empty vector (EV) cells; assay type: cell-based, human; settings: 10 µM; HEK-293 EV cells; percentage of predrug baseline
Outline: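 Tetracycline at 1 µg ml^−1 was added 4 h before testing; cells were loaded with Calcium 5 dye for 1 h and read at 37 °C, with drug added after 1 min baseline (final 0.1% DMSO). The response was the % change from the 60 s baseline after solvent subtraction, and EC50/Emax came from a three-parameter logistic fit, reported as pEC50.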

[4] = target: T1, human TRPV1; assay: Pre-incubation with PUFAs or capsazepine, then capsaicin (10 nM) response in HEK-293 TRPV1 cells; assay type: cell-based
Experimental: Intracellular calcium [Ca]i levels were assessed using the calcium 5 kit from Molecular Devices (# R8186, Sunnyvale, CA, USA) on a FlexStation 3 Microplate Reader (Molecular Devices, Sunnyvale, CA, USA). […] Probenecid (cat # 50027; Biotium) which helps to prevent expulsion of calcium indicator from the cells was added to a final concentration of 1.25 mM. 90 µL of the dye were loaded into each well of the plate and incubated for 1 h before reading in the FlexStation 3 at 37 °C. Fluorescence was recorded every 2 s (λ excitation = 485 nm, λ emission = 525 nm) for 5 min. After 1 min of baseline recording, 20 µL of the drug, dissolved in HBSS with 1% dimethyl sulfoxide (DMSO) (cat # D2650; Sigma-Aldrich, Melbourne, Australia) was added (final DMSO concentration was 0.1% in well). […]

T2 sequence (O75762 whole entry): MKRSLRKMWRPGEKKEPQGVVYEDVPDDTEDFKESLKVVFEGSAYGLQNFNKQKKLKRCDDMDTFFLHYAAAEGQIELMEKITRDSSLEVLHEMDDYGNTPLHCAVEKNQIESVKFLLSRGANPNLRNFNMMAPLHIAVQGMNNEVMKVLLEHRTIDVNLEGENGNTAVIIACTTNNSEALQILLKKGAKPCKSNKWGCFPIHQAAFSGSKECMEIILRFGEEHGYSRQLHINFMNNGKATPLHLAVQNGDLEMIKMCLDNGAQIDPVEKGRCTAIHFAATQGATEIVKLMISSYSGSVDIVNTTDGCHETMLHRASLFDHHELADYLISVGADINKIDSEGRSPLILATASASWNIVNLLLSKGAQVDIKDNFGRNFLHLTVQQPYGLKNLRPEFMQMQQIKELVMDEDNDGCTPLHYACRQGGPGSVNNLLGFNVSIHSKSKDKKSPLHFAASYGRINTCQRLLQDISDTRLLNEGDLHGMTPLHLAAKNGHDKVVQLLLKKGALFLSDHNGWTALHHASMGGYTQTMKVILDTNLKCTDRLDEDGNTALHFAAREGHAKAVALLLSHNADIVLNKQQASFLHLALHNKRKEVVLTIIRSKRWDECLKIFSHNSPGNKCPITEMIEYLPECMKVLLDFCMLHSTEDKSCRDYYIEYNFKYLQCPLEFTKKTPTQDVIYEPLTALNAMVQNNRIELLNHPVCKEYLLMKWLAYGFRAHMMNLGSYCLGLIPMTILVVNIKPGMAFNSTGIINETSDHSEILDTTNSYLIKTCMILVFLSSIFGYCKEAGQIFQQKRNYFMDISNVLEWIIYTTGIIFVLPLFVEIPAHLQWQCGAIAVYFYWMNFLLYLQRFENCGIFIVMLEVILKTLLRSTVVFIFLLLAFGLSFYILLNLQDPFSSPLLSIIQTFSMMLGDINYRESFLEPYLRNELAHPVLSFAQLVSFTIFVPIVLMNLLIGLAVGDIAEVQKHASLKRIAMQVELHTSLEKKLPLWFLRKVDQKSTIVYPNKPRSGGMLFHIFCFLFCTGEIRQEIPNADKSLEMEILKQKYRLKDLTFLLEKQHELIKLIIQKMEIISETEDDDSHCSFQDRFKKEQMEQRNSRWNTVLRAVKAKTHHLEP
T1 sequence (Q8NER1 whole entry): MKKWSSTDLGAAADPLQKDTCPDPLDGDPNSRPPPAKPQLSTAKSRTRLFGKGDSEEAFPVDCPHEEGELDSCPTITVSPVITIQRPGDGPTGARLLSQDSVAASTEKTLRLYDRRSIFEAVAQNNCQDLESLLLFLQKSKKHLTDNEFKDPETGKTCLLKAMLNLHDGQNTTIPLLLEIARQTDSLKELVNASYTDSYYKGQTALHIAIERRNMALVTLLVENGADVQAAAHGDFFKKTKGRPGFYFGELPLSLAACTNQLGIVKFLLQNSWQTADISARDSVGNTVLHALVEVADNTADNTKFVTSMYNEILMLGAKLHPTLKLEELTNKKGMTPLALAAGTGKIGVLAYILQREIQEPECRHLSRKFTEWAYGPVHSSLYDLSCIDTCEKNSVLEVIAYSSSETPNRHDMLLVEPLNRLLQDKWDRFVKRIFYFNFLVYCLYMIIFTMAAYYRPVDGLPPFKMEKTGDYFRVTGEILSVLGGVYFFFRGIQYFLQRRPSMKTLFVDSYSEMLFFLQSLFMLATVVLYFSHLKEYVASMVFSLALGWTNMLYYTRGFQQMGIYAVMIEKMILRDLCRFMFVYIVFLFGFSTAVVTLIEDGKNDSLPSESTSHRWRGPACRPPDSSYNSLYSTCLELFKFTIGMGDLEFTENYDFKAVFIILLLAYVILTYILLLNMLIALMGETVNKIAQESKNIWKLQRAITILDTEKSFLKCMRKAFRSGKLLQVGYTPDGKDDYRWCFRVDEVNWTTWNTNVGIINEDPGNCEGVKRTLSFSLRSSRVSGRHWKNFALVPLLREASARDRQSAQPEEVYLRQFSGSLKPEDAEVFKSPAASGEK

Structure (SMILES): CCCCC/C=C\C/C=C\C/C=C\CCCCC(=O)O [γ-LA, γ-linolenic acid]
- Elevation of [Ca]i in HEK-293 TRPV1 cells compared with HEK-293 EV cells ([1]; 10 µM): did not produce a notable change
- Change of Ca5 fluorescence, Mean ± SEM, TRPV1 (10 µM) ([1]; 10 µM, HEK-293 TRPV1 cells, percentage of predrug baseline): 10 ± 1%
- Change in Ca5 fluorescence, individual experiments (CRC raw data) ([1]; log concentration -4.52288 (M)): 27.0827 and 92.1911 and 21.8805 and 27.2504 and 40.8812 and 31.4387
- Change in Ca5 fluorescence, individual experiments (CRC raw data) ([1]; log concentration -5 (M)): 15.417 and 9.771 and 8.536 and 10.7081 and 5.47 and 8.301
- Change in Ca5 fluorescence, individual experiments (CRC raw data) ([1]; log concentration -5.52288 (M)): 2.0403 and 1.257 and 4.6526 and 4.706 and 2.248 and 2.361
- Change in Ca5 fluorescence, individual experiments (CRC raw data) ([1]; log concentration -6 (M)): 3.899 and 2.392 and 3.26 and 4.994 and 2.614 and 2.892
- Change in Ca5 fluorescence, individual experiments (CRC raw data) ([1]; log concentration -6.52288 (M)): -0.6308 and 4.773 and 3.415 and 10.3597 and 1.966 and 2.796
- Change in Ca5 fluorescence, individual experiments (CRC raw data) ([1]; log concentration -7 (M)): 0.359 and 3.081 and 7.321 and 1.04 and 2.553
- Elevation of [Ca]i in HEK-293 TRPA1 cells compared with HEK-293 EV cells ([2]; 10 µM (cinnamaldehyde 300 µM)): did not produce a change
- Change of Ca5 fluorescence, Mean ± SEM, TRPA1 (10 µM) ([2]; 10 µM, HEK-293 TRPA1 cells, percentage of predrug baseline): 112 ± 61%
- TRPA1 activation at the highest concentration tested ([2]; 30 µM): activated TRPA1
- Emax at 30 µM ([2]; HEK293, read-out: Emax ± SEM % TRPA1 (30 µM)): 255 ± 73%
- [Ca]i response (change in fluorescence), individual replicates ([2]; concentration -4.52288 (log)): 481.429 and 335.153 and 71.3202 and 67.3187 and 162.48 and 414.065
- [Ca]i response (change in fluorescence), individual replicates ([2]; concentration -5 (log)): 268.343 and 23.3711 and 10.7965 and 8.59 and 23.2369 and 338.225
- [Ca]i response (change in fluorescence), individual replicates ([2]; concentration -5.52288 (log)): 2.578 and 5.507 and 0.9073 and 7.069 and 268.915
- [Ca]i response (change in fluorescence), individual replicates ([2]; concentration -6 (log)): 0.8222 and 0.07304 and 2.068 and 3.637 and 4.16 and 7.0167
- [Ca]i response (change in fluorescence), individual replicates ([2]; concentration -6.52288 (log)): 0.1101 and 1.014 and 7.308 and 0.3513 and 4.285 and 9.421
- [Ca]i response (change in fluorescence), individual replicates ([2]; concentration -7 (log)): 0.1516 and -0.4942 and 5.21 and 2.462 and 4.3545 and 5.724
- Change of Ca5 fluorescence, Mean ± SEM, EV (10 µM) [3]: 9 ± 2%
- Effect of pre-treatment on the capsaicin response ([4]; 10 µM, 5 min exposure, then capsaicin 10 nM): did not affect
- Post-capsaicin: response to subsequent capsaicin addition, individual experiments ([4]; capsaicin 10 nM after 5 min drug 10 µM, TRPV1 cells, listed as GLA): 270.139 and 251.245 and 119.532 and 316.43 and 265.849 and 338.308
- Pre-capsaicin: response to first drug, individual experiments ([4]; drug 10 µM for 5 min, TRPV1 cells, listed as GLA): 11.5745 and 14.3439 and 14.381 and 3.4398 and 10.3554 and 15.8417
